{"source": "paper PMC4448982", "about": "“LP-925219 maximizes urinary glucose excretion in mice by inhibiting both renal SGLT1 and SGLT2” (Pharmacology Research & Perspectives, 2015)", "format_in_all_cases": "cell-based", "conditions_in_all_cases": "mean ± SD", "key": {"dog SGLT1": {"target": "T1, dog SGLT1 (Canis lupus familiaris, UniProt A0A8I3PYH5)", "T1 sequence (A0A8I3PYH5 1-662)": "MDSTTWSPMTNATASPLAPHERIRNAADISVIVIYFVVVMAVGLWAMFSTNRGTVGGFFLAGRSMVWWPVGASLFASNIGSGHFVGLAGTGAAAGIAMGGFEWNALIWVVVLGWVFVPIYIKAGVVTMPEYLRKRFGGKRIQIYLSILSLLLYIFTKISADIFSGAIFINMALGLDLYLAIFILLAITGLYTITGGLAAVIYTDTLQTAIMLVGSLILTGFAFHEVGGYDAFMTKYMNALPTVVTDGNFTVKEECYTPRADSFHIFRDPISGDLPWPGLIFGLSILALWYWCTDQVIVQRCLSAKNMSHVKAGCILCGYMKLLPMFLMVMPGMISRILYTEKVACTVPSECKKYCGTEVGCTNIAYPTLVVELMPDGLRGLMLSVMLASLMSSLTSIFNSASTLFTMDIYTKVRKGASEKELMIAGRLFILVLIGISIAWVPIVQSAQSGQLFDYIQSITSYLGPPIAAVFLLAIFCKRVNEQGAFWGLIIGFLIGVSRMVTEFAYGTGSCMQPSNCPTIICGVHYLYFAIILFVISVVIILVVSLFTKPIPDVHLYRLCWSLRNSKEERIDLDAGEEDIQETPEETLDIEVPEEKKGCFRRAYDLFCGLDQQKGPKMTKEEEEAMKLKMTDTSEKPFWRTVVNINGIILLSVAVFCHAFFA", "assay": "14C-AMG uptake assay, cells expressing dog SGLT1", "description": "(§1) Methods for generating cell lines expressing mouse, rat, and dog SGLT1 and SGLT2 are published (Powell et al. [2013b], [2014]). Full-length coding sequence of human SGLT1 (NP_000334) and human SGLT2 (NP_003032.1) with an HA-tag at the N-terminus were cloned into the mammalian expression vector pIRESpuro2 (Clontech, Mountain View, CA). HEK293 cells (ATCC, Manassas, VA) were transfected with the pIRESpuro2 vector containing human SGLT1 or SGLT2 and bulk stable cell lines were selected in the presence of 0.5 μg/mL of puromycin.\n(§2) Cell lines expressing SGLT1 or SGLT2 were plated into poly-D-lysine-coated 384-well plates, and culture overnight in cell growth medium. Cells were washed, and then incubated in uptake buffer ([…], […] KCl, […] CaCl2, […] MgCl2, […] HEPES/Tris, 1 mg/mL of bovine serum albumin, pH7.4) containing [^14C]α-methylglucopyranoside (^14C-AMG), a nonmetabolizable glucose analog specific for sodium-dependent glucose transporters (Wright and Turk [2004]). The inhibition of SGLT1 or SGLT2 was determined by measuring SGLT1/2-mediated ^14C-AMG uptake in the presence of increasing compound concentrations of LP-925219. […] Standard sigmoidal dose–response model curves were fitted, and the IC50 value was computed as the LP-925219 concentration that inhibited the ^14C-AMG uptake by 50% between baseline and maximum uptake."}, "rat SGLT1": {"target": "T2, rat SGLT1 (Rattus norvegicus, UniProt P53790)", "T2 construct": "expressed in transfected cells; host or cells: HEK293 (per abstract)", "T2 sequence (P53790 1-665)": "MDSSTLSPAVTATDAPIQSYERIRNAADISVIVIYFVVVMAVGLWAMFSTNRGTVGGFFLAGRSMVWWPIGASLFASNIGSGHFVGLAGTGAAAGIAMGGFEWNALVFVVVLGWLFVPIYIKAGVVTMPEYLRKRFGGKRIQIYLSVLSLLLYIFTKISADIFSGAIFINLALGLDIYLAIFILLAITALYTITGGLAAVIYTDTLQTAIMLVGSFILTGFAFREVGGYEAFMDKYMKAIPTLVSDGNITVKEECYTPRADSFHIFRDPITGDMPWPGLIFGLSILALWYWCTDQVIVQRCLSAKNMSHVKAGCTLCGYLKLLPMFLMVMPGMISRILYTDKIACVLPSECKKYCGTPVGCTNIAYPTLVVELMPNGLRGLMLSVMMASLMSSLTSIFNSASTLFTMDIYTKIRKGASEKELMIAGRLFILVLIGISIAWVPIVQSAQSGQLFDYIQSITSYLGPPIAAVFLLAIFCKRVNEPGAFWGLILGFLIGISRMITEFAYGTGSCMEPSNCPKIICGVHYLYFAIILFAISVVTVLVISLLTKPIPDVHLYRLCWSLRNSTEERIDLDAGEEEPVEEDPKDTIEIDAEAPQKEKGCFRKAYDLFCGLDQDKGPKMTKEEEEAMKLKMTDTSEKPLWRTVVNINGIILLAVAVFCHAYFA", "assay": "14C-AMG uptake assay, cells expressing rat SGLT1", "description": "as §1, §2"}, "dog SGLT2": {"target": "dog SGLT2 (Canis lupus familiaris, UniProt Q5U9C9)", "sequence (Q5U9C9 entry or part of it)": "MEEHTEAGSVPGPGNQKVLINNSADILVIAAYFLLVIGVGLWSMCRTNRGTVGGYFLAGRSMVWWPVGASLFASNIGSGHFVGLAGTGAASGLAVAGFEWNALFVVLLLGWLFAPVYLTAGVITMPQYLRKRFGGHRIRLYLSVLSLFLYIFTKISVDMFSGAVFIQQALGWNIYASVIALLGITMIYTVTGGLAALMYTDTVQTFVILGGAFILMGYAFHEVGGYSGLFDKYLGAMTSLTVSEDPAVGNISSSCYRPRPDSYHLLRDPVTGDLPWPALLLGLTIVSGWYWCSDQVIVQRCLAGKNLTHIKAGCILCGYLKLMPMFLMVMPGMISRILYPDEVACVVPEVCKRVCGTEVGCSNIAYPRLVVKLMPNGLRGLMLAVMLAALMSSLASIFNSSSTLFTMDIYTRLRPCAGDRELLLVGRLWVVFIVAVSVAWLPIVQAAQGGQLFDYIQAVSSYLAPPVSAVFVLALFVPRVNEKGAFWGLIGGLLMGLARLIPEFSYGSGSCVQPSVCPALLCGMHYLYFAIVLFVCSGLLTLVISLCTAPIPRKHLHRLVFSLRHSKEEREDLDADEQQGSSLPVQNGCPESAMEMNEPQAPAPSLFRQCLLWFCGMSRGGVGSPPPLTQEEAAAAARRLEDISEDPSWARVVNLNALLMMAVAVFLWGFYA", "assay": "14C-AMG uptake assay, cells expressing dog SGLT2", "description": "as §1, §2"}}, "data": [{"smiles": "COc1ccc(Cc2cc([C@@H]3O[C@H](SC)[C@@H](O)[C@H](O)[C@H]3O)ccc2Cl)cc1", "note": "[LP-925219]", "values": [{"measurement": "IC50", "setting": "dog SGLT1", "result": "30.2 ± 2", "unit": "nM"}, {"measurement": "IC50", "setting": "rat SGLT1", "result": "36.7 ± 7.2", "unit": "nM"}, {"measurement": "IC50", "setting": "dog SGLT2", "result": "1 ± 0.3", "unit": "nM"}]}]}
